Experimental data reported in US12570666B2, “Furoindazole derivatives” (Bayer Aktiengesellschaft, priority 2019, dated 2026).

What follows are compounds tested against T1, human GPR84 receptor (Homo sapiens, UniProt Q9NQS5) (assay: cAMP HTRF assay for identification of cellular GPR84 antagonists). Details: CHO-K1 cells stably expressing human GPR84; Forskolin + agonist 6-OAU (EC80); average or median values.
T1 construct: frozen aliquots prepared by acCELLerate; host or cells: CHO-K1
Type: cell-based
From the text: cAMP HTRF® Assay for Identification of Cellular GPR84 Antagonists
By using a Homogenous Time-Resolved Fluorescence (HTRF®) based assay (#62AM5PEJ, Cisbio, Condolet, France) the inhibition of the Gi-coupled GPR84 receptor can be detected. CHO-K1 cells stably expressing human GPR84 receptor (purchased from DiscoveRx, now Eurofins) were used and treated with Forskolin (F6886, Sigma, Germany) to stimulate membrane adenylyl cyclases and thereby unspecific cAMP formation. Activation of the Gi-coupled GPR84 by a natural or small molecule agonist (e.g. 6-n-octyl aminouracile, inhouse) results in inhibition of cellular cAMP formation which can be released again by antagonists to this receptor. Detection and quantification of cellular cAMP levels in this HTRF assay is achieved by interaction between a fluorescent cAMP tracer (cAMP-d2) and an Eu-cryptate labelled anti-cAMP antibody. Following excitation at 337 nm this pairing allows for the generation of a fluorescence resonance energy transfer (FRET) between the partners and results in FRET induced emissions at 665 nm and 620 nm, the latter representing background signal by Eu-cryptate labelled anti-cAMP antibody. Maximal signal is obtained in the absence of any cellular cAMP (no competition for the binding of the tracer to the antibody). Given the combination of the Gi coupling properties of GPR84 and the competitive nature of the detection system agonist treatment should result in an increase in the HTRF signal due to lowered cAMP levels. Any signal decrease in the presence of Forskolin, agonist and compound is indicative of antagonist mediated abrogation of GPR84 signalling.
For the assay, frozen aliquots of CHO-K1 cells expressing hGPR84 (prepared by acCELLerate, Hamburg, Germany) were thawed and a cell suspension (1.67E+06 cells/mL) in assay media (Ham's F12 Nutrient Mix, Thermo Fisher Scientific, Waltham, USA; 5% fetal calf serum, Biomol, Hamburg, Germany) containing cAMP-d2 (dilution 1:20, supplied with the kit #62AM5PEJ, Cisbio, Condolet, France) was prepared. After recovery of cells for 20 minutes at 37° C., 3 μL/well cell suspension including cAMP-d2 were added to a pre-dispensed assay plate (Greiner Bio-One, Kremsmuenster, Austria) containing 50 nl/well test compound in 100% DMSO or 100% DMSO as control. This was followed by a 30 minutes incubation step at room temperature. […] The reaction was stopped by addition of 3 μL/well lysis buffer containing cAMP Eu-Cryptate antibody (dilution 1:20) (both supplied with the kit #62AM5PEJ, Cisbio, Condolet, France). To enable complete lysis, plates were incubated for 60 minutes at room temperature before measurement in an HTRF reader, e.g. a PHERAstar (BMG Labtech, Ortenberg, Germany).
From the fluorescence emissions at 665 nm (FRET) and at 620 nm (background signal of Eu-cryptate) the ratio (emission at 665 nm divided by emission at 620 nm×10000) was calculated and the data were normalized (reaction without test compound, only 100% DMSO=0% inhibition; all other assay components except agonist=100% inhibition). For dose response testing on the same microtiter plate, compounds were tested at 11 different concentrations in the range of 20 μM to 0.07 nM (20 μM, 5.7 μM, 1.6 μM, 0.47 μM, 0.13 μM, 38 nM, 11 nM, 3.1 nM, 0.89 nM, 0.25 and 0.07 nM; dilution series prepared before the assay at the level of the 100-fold conc. stock solutions by serial 1:3.5 dilutions in 100% DMSO) in duplicate values for each concentration. IC50 values were calculated by 4-parameter fitting using a commercial software package (Genedata Screener, Basel, Switzerland).
Examples were tested in selected biological assays one or more times. […]

T1 sequence (Q9NQS5 whole entry): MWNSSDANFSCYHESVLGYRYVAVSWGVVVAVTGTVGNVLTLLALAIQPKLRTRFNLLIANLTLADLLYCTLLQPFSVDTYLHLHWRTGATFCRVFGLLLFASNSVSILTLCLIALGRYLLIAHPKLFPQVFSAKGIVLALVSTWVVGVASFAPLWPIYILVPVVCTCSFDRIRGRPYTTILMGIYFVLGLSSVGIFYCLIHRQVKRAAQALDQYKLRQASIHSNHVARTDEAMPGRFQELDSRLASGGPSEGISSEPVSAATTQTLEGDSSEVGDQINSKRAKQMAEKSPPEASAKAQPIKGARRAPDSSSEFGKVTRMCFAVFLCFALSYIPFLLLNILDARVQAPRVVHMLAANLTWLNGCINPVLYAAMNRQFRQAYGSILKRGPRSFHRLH

SMILES	IC50 [nM]
Cc1ccc(Cn2cc3c(n2)-c2c(oc(C(=O)N[C@@H]4CCOC4)c2C)CC3)nc1 [Example 318, 8-methyl-2-[(5-methylpyridin-2-yl)methyl]-N-[(3R)-oxolan-3-yl]-4,5-dihydro-2H-furo[2,3-g]indazole-7-carboxamide]	8310
Cc1c(C(=O)NC[C@@H]2COCCO2)oc2c1-c1nn(CCN3CCNCC3)cc1CC2 [Example 163, N-[(2R)-1,4-dioxan-2-ylmethyl]-8-methyl-2-[2-(piperazin-1-yl)ethyl]-4,5-dihydro-2H-furo[2,3-g]indazole-7-carboxamide]	> 20000
O=C(NC[C@@H]1COCCO1)c1oc2c(c1C1CC1)-c1nn(C[C@H]3COCCO3)cc1CC2 [Example 193]	32
Cc1c(C(=O)NCCN2CCN(c3ccc(C(F)(F)F)cn3)CC2)oc2c1-c1nn(Cc3ccccn3)cc1CC2 [Example 12, 8-methyl-2-(pyridin-2-ylmethyl)-N-(2-{4-[5-(trifluoromethyl)pyridin-2-yl]piperazin-1-yl}ethyl)-4,5-dihydro-2H-furo[2,3-g]indazole-7-carboxamide]	2760
Cc1c(C(=O)NCc2cc[nH]n2)oc2c1-c1nn(Cc3ccccn3)cc1CC2 [Example 22, 8-methyl-N-(1H-pyrazol-3-ylmethyl)-2-(pyridin-2-ylmethyl)-4,5-dihydro-2H-furo[2,3-g]indazole-7-carboxamide]	340
Cc1c(C(=O)NC[C@@H]2COCCO2)oc2c1-c1nn(CC3CC3)cc1C1(CC1)C2 [Example 131, 2′-(cyclopropylmethyl)-N-[(2R)-1,4-dioxan-2-ylmethyl]-8′-methyl-2′,5′-dihydrospiro[cyclopropane-1,4′-furo[2,3-g]indazole]-7′-carboxamide]	35
Cc1cccc(Cn2cc3c(n2)-c2c(oc(C(=O)NCc4ncco4)c2C)CC3)n1 [Example 72, 8-methyl-2-[(6-methylpyridin-2-yl)methyl]-N-(1,3-oxazol-2-ylmethyl)-4,5-dihydro-2H-furo[2,3-g]indazole-7-carboxamide]	240
Cc1c(C(=O)NCC2CN(C)CCO2)oc2c1-c1nn(Cc3ccccn3)cc1CC2 (single isomer, unassigned) [Example 38-1]	1420
Cc1c(C(=O)NCC2CCC(C)(C)O2)oc2c1-c1nn(C[C@H]3COCCO3)cc1C1(CC1)C2 (mixture of isomers) [Example 195]	29
O=C(NC[C@H]1CC(F)(F)CO1)c1oc2c(c1C(F)(F)F)-c1nn(C[C@H]3COCCO3)cc1CC2 (single isomer, unassigned) [Example 222-2, N-{[(2S or 2R)-4,4-difluorooxolan-2-yl]methyl}-2-{[(2S)-1,4-dioxan-2-yl]methyl}-8-(trifluoromethyl)-4,5-dihydro-2H-furo[2,3-g]indazole-7-carboxamide]	54
Cc1ccnc(CCNC(=O)c2oc3c(c2C(F)(F)F)-c2nn(C[C@H]4COCCO4)cc2CC3)c1 [Example 231, 2-[(2S)-1,4-Dioxan-2-ylmethyl]-N-[2-(4-methylpyridin-2-yl)ethyl]-8-(trifluormethyl)-4,5-dihydro-2H-furo[2,3-g]indazol-7-carboxamide]	1390
Cc1ccc(CNC(=O)c2oc3c(c2C)-c2nn(Cc4ccccn4)cc2CC3)cc1 [Example 2, 8-methyl-N-[(4-methylphenyl)methyl]-2-[(pyridin-2-yl)methyl]-4,5-dihydro-2H-furo[2,3-g]indazole-7-carboxamide]	78
C[C@@H]1Cc2oc(C(=O)NCc3ccn(C)n3)c(C(F)(F)F)c2-c2nn(C[C@H]3COCCO3)cc21 (single isomer, unassigned) [Example 257, (4R or 4S)-2-{[(2S)-1,4-dioxan-2-yl]methyl}-4-methyl-N-[(1-methyl-1H-pyrazol-3-yl)methyl]-8-(trifluoromethyl)-4,5-dihydro-2H-furo[2,3-g]indazole-7-carboxamide]	25
Cc1c(C(=O)NCC2COC2)oc2c1-c1nn(Cc3ccccn3)cc1CC2 [Example 36, 8-methyl-N-(oxetan-3-ylmethyl)-2-(pyridin-2-ylmethyl)-4,5-dihydro-2H-furo[2,3-g]indazole-7-carboxamide]	1720
Cc1c(C(=O)NC[C@@H]2CCCO2)oc2c1-c1nn(C[C@H]3CN(C)CCO3)cc1CC2 [Example 101, 8-methyl-2-{[(2R)-4-methylmorpholin-2-yl]methyl}-N-[(2S)-tetrahydrofuran-2-ylmethyl]-4,5-dihydro-2H-furo[2,3-g]indazole-7-carboxamide]	1540
Cc1c(C(=O)NC[C@@H]2CCCO2)oc2c1-c1nn(Cc3ccc(C#N)cn3)cc1CC2 [Example 319, 2-[(5-cyanopyridin-2-yl)methyl]-8-methyl-N-{[(2S)-oxolan-2-yl]methyl}-4,5-dihydro-2H-furo[2,3-g]indazole-7-carboxamide]	1120
Cc1cccc(Cn2cc3c(n2)-c2c(oc(C(=O)NCC4CCCO4)c2C)CC3)n1 (racemic) [Example 66, 8-methyl-2-[(6-methylpyridin-2-yl)methyl]-N-[(2R/S)-tetrahydrofuran-2-ylmethyl]-4,5-dihydro-2H-furo[2,3-g]indazole-7-carboxamide]	160

The next compounds have a lower IC50 than those just listed; values first:

IC50 [nM]	SMILES
16	Cc1c(C(=O)NCC2CCCO2)oc2c1-c1nn(CC3COc4ncccc4O3)cc1CC2 (single isomer, unassigned) [Example 52-2]
21	O=C(NC[C@@H]1COCCO1)c1oc2c(c1C(F)(F)F)-c1nn(CC3CCN(C(=O)C4CC4)CC3)cc1CC2 [Example 285, 2-{[1-(cyclopropanecarbonyl)piperidin-4-yl]methyl}-N-{[(2R)-1,4-dioxan-2-yl]methyl}-8-(trifluoromethyl)-4,5-dihydro-2H-furo[2,3-g]indazole-7-carboxamide]
3	Cc1ccc(Cn2cc3c(n2)-c2c(oc(C(=O)NC[C@@H]4COCCO4)c2C(F)(F)F)CC32CC2)nc1 [Example 215, N-{[(2R)-1,4-dioxan-2-yl]methyl}-2′-[(5-methylpyridin-2-yl)methyl]-8′-(trifluoromethyl)-2′,5′-dihydrospiro[cyclopropane-1,4′-furo[2,3-g]indazole]-7′-carboxamide]
6	Cc1ccc(Cn2cc3c(n2)-c2c(oc(C(=O)NC[C@@H]4CCCO4)c2C(F)(F)F)CC3)cn1 [Example 192]
4	Cc1ccc(Cn2cc3c(n2)-c2c(oc(C(=O)NC[C@@H]4COCCO4)c2C(F)(F)F)CC32CC2)cn1 [Example 212, N-{[(2R)-1,4-dioxan-2-yl]methyl}-2′-[(6-methylpyridin-3-yl)methyl]-8′-(trifluoromethyl)-2′,5′-dihydrospiro[cyclopropane-1,4′-furo[2,3-g]indazole]-7′-carboxamide]
21	Cc1c(C(=O)NC[C@@H]2COCCO2)oc2c1-c1nn(CC3(C)COC3)cc1CC2 [Example 94, N-[(2R)-1,4-dioxan-2-ylmethyl]-8-methyl-2-[(3-methyloxetan-3-yl)methyl]-4,5-dihydro-2H-furo[2,3-g]indazole-7-carboxamide]
9	CCC(=O)C(=O)N1CCC(Cn2cc3c(n2)-c2c(oc(C(=O)NC[C@@H]4COCCO4)c2C(F)(F)F)C[C@H]3C)CC1 (single isomer, unassigned) [Example 296, (4R or 4S)-N-{[(2R)-1,4-dioxan-2-yl]methyl}-4-methyl-2-{[1-(2-oxobutanoyl)piperidin-4-yl]methyl}-8-(trifluoromethyl)-4,5-dihydro-2H-furo[2,3-g]indazole-7-carboxamide]
